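48-hour exposure; five concentrations; linearly interpolated endpoints. At the GI50, growth is halved. TGI: concentration producing complete growth inhibition.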
Experiments:
Experiment in all cases: NCI-60 cell line screen, 48 h
HOP-62 NSCLC = system: HOP-62 NSCLC
SR leukemia = system: SR leukemia
SW-620 colon = system: SW-620 colon
OVCAR-3 ovarian = system: OVCAR-3 ovarian
HT29 colon = system: HT29 colon
HCT-15 colon = system: HCT-15 colon
OVCAR-4 ovarian = system: OVCAR-4 ovarian
KM12 colon = system: KM12 colon
COLO 205 colon = system: COLO 205 colon
HCC-2998 colon = system: HCC-2998 colon
UACC-62 melanoma = system: UACC-62 melanoma
SF-295 CNS = system: SF-295 CNS
CAKI-1 renal = system: CAKI-1 renal
NCI-H460 lung = system: NCI-H460 lung
UACC-257 melanoma = system: UACC-257 melanoma
SK-MEL-28 melanoma = system: SK-MEL-28 melanoma
NCI-H522 lung = system: NCI-H522 lung
LOX IMVI melanoma = system: LOX IMVI melanoma
HL-60(TB) leukemia = system: HL-60(TB) leukemia
OVCAR-8 ovarian = system: OVCAR-8 ovarian
SNB-19 CNS = system: SNB-19 CNS
K-562 leukemia = system: K-562 leukemia
MALME-3M melanoma = system: MALME-3M melanoma
HS 578T breast = system: HS 578T breast
BT-549 breast = system: BT-549 breast
MDA-MB-435 = system: MDA-MB-435
HCT-116 colon = system: HCT-116 colon
SK-OV-3 ovarian = system: SK-OV-3 ovarian
SK-MEL-2 melanoma = system: SK-MEL-2 melanoma

## C[C@]12CC[C@H]3[C@@H](CC=C4C[C@@H](O)CC[C@@]43C)[C@@H]1CC[C@@H]2[C@](C)(O)CCc1cccnc1
HOP-62 NSCLC
  TGI: > 100 µM
SR leukemia
  GI50: 2.95 µM
  TGI: > 100 µM
SW-620 colon
  GI50: 5.49 µM
  TGI: > 100 µM
OVCAR-3 ovarian
  GI50: 9.14 µM
  TGI: > 100 µM
HT29 colon
  GI50: 4.6 µM
  TGI: > 100 µM
HCT-15 colon
  GI50: 4.29 µM
  TGI: > 100 µM
OVCAR-4 ovarian
  GI50: 1.25 µM
  TGI: > 100 µM
KM12 colon
  GI50: 5.55 µM
  TGI: > 100 µM
COLO 205 colon
  GI50: 3.16 µM
  TGI: > 100 µM
HCC-2998 colon
  GI50: 4.99 µM
  TGI: > 100 µM
UACC-62 melanoma
  GI50: 3.19 µM
  TGI: > 100 µM
SF-295 CNS
  GI50: 2.21 µM
  TGI: 9.64 µM
CAKI-1 renal
  GI50: 7.1 µM
  TGI: > 100 µM
NCI-H460 lung
  GI50: 3.99 µM
  TGI: > 100 µM
UACC-257 melanoma
  GI50: 3.03 µM
  TGI: > 100 µM
SK-MEL-28 melanoma
  GI50: 4.27 µM
  TGI: > 100 µM
NCI-H522 lung
  GI50: 2.09 µM
  TGI: 7.79 µM
LOX IMVI melanoma
  GI50: 5.63 µM
  TGI: > 100 µM
HL-60(TB) leukemia
  GI50: 2.42 µM
  TGI: 7.04 µM
OVCAR-8 ovarian
  GI50: 4.82 µM
  TGI: > 100 µM
SNB-19 CNS
  GI50: 6.77 µM
  TGI: > 100 µM
K-562 leukemia
  GI50: 2.13 µM
  TGI: > 100 µM
MALME-3M melanoma
  GI50: 2.57 µM
  TGI: 8.14 µM
HS 578T breast
  GI50: 3.41 µM
  TGI: > 100 µM
BT-549 breast
  GI50: 1.69 µM
  TGI: 6.55 µM
MDA-MB-435
  GI50: 4.6 µM
  TGI: > 100 µM
HCT-116 colon
  GI50: 3.42 µM
  TGI: > 100 µM
SK-OV-3 ovarian
  GI50: 6.49 µM
  TGI: > 100 µM
SK-MEL-2 melanoma
  GI50: 7.44 µM
  TGI: > 100 µM

From PubChem BioAssay (NCI)
